Experimental data taken from patent US20170296611A1, “Pharmaceutical Compositions Comprising Extracts of Sarcopoterium Spinosum, Components Thereof, and Uses Thereof” (Diabest Botanical Drugs Ltd., priority 2009, published 2017).

What was measured:
Type in all cases: cell-based
[1] = tested on: 3T3-L1 adipocytes; test: Free fatty acid release (lipolysis) assay in 3T3-L1 adipocytes
Procedure: 3T3-L1 pre-adipocytes were cultured and differentiated as described in references 8 as well as 16, 19, 20 and 21. Briefly, cells were grown to confluence in Dulbecco's Modified Eagle's Medium (DMEM) containing 10% fetal calf serum (FCS), 2 mM glutamine and 1% ampicillin. Two days after full confluence, the cells were induced to differentiate by 3 days incubation in DMEM containing 10% FCS, 0.5 mM isobutylmethylxanthine (IBMX), 1 μM dexamethasone and 100 nM insulin. This was followed by 2 days of incubation in DMEM containing 10% FCS and 100 nM insulin. The cells were grown for an additional 5-9 days in DMEM containing 10% FCS. […] Differentiated adipocytes were preincubated for 12 hours in DMEM containing 2% fatty acid-free bovine serum albumin, in the absence of FCS. Lipolysis was stimulated by treating cells with 10 μM isoproterenol for 1 hour, in the absence or presence of insulin (100 nM) or a composition (S. spinosum extract diluted to 0.001-1% V/V). Free fatty acids (FFA) released into the culture media were measured immediately using a NEFA-C kit, according to the kit instructions. Lipolysis was induced using the adrenergic agonist isoproterenol in order to analyze the extract's effect on lipolysis, and the effect of compositions comprising S. spinosum extract on isoproterenol-induced lipolysis measured, with insulin as a positive control. Differentiated adipocytes (3T3-L1) were treated with insulin (100 nM) or a composition comprising 1% (V/V) S. spinosum extract with or without the addition of isoproterenol (10 μM) for 60 min. Free fatty acid (FFA) concentration was measured […].

[2] = tested on: GSK3β ser-9 phosphorylation; test: GSK3β phosphorylation in L6 myotubes (Western blot / ELISA); conditions: insulin 100 nM, 20 min
Procedure: L6 myoblasts were grown in MEM-α containing 25 mM glucose, 10% FCS, 2 mM glutamine and 1% ampicillin. Experiments were performed on differentiated myotubes. In order to induce differentiation, myoblasts were incubated in MEM-α containing 25 mM glucose and 2% FCS for 4 days, followed by an additional 24 h incubation in a MEM-α starvation medium containing 5 mM glucose and 2% FCS. AML-12, a nontransformed hepatocyte cell line were maintained in DMEM containing 25 mM glucose, 10% FCS, 2 mM glutamine and 1% ampicillin. […] Protein lysates were prepared using cell extraction buffer supplemented with protease and phosphatase inhibitors. The samples were homogenized and centrifuged at 14,000 rpm for 20 min. The supernatant was collected and protein concentration was measured using the Bradford method. 20 μg protein per lane was separated by SDS-polyacrylamide gel electrophoresis. Proteins were electrophoretically transferred onto nitrocellulose membranes. The membranes were blocked in 10% dry milk, incubated with the appropriate antibodies and immunodetected using the enhanced chemiluminescence method. Differentiated L6 myotubes were treated with 100 nM insulin or composition (S. spinosum extract diluted to 0.1% V/V) for 20 min. Protein lysates were prepared using cell extraction buffer. […] GSK-3β phosphorylation was measured using the ELISA detection kit. […]

[3] = tested on: AML12 hepatocyte cell line; test: [3H]2-deoxy-D-glucose uptake in hepatocytes; conditions: insulin 100 nM
Procedure: (§1) L6 myoblasts were grown in MEM-α containing 25 mM glucose, 10% FCS, 2 mM glutamine and 1% ampicillin. Experiments were performed on differentiated myotubes. In order to induce differentiation, myoblasts were incubated in MEM-α containing 25 mM glucose and 2% FCS for 4 days, followed by an additional 24 h incubation in a MEM-α starvation medium containing 5 mM glucose and 2% FCS. AML-12, a nontransformed hepatocyte cell line were maintained in DMEM containing 25 mM glucose, 10% FCS, 2 mM glutamine and 1% ampicillin. Differentiated adipocytes, L6 myoblasts and AML12 cells were each preincubated for 6 hours in low glucose (4.5 mM), serum-free DMEM containing 1% BSA, and then treated with either 100 nM insulin or compositions comprising different concentrations of S. spinosum extract (0.001-1% V/V). Glucose uptake was measured in triplicate samples in six-well plates using [^3H]2-deoxy-D-glucose (1 mCi/ml; American Radiolabeled Chemicals, St. Louis, Mo., USA). […] Samples were counted in the ^3H window of a Tricarb scintillation counter. […] The effect of S. spinosum compositions on glucose uptake was measured in the AML12 hepatocyte cell line, L6 skeletal myoblasts and in differentiated 3T3-L1 adipocytes, and compared to the effect of insulin. […] The uptake of [^3H]2-deoxy-D-glucose into cells was determined as described in the Materials and Methods section.

[4] = tested on: L6 myoblasts; test: [3H]2-deoxy-D-glucose uptake in L6 myoblasts; conditions: insulin 100 nM
Procedure: as §1

[5] = tested on: differentiated 3T3-L1 adipocytes; test: [3H]2-deoxy-D-glucose uptake in 3T3-L1 adipocytes; conditions: insulin 100 nM
Procedure: 3T3-L1 pre-adipocytes were cultured and differentiated as described in references 8 as well as 16, 19, 20 and 21. Briefly, cells were grown to confluence in Dulbecco's Modified Eagle's Medium (DMEM) containing 10% fetal calf serum (FCS), 2 mM glutamine and 1% ampicillin. Two days after full confluence, the cells were induced to differentiate by 3 days incubation in DMEM containing 10% FCS, 0.5 mM isobutylmethylxanthine (IBMX), 1 μM dexamethasone and 100 nM insulin. This was followed by 2 days of incubation in DMEM containing 10% FCS and 100 nM insulin. The cells were grown for an additional 5-9 days in DMEM containing 10% FCS. […] Glucose uptake was measured in triplicate samples in six-well plates using [^3H]2-deoxy-D-glucose (1 mCi/ml; American Radiolabeled Chemicals, St. Louis, Mo., USA). […] Samples were counted in the ^3H window of a Tricarb scintillation counter. […] The effect of S. spinosum compositions on glucose uptake was measured in the AML12 hepatocyte cell line, L6 skeletal myoblasts and in differentiated 3T3-L1 adipocytes, and compared to the effect of insulin. […] The uptake of [^3H]2-deoxy-D-glucose into cells was determined as described in the Materials and Methods section.

CC(C)NCC(O)c1ccc(O)c(O)c1 (stereo not shown) [isoproterenol, Isoproterenol, reference compound]
free fatty acid release (lipolysis) ([1]; isoproterenol 10 μM for one hour alone): 4.23±3.01 mM FFA/mg protein

insulin
increase in GSK3β ser-9 phosphorylation compared to the control [2]: 4 fold | isoproterenol-induced free fatty acid release ([1]; isoproterenol 10 μM, 60 min, insulin 100 nM): 0.47±0.16 mM FFA/mg protein | free fatty acid release ([1]; unstimulated adipocytes (no isoproterenol)): not affected | increase in glucose uptake [3]: 160±12% | increase in glucose uptake [4]: 146±11.26% | increase in glucose uptake [5]: 167±13%
